Reference: US10640534B2 (Agios Pharmaceuticals, Inc., priority 2012, dated 2020)

test system: U87MG cells; experiment: Cellular assay, inhibition of 2-HG production in U87MG cells; assay type: cell-based; conditions: Homo sapiens, U-87 MG, 48 h
Method in brief: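 HT1080 or U87MG cells (U87MG kept with 500 ug/mL G418) seeded at 5000 cells/well and treated with compound at 0.2% final DMSO. Incubated 48 h at 37 °C. 2-HG inhibition determined by LC-MS. Viability read by CellTiter-Glo luminescence at 72 h post-dose.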

| IC50 [nM] | SMILES |
| --- | --- |
| < 100 | CC(C)(O)c1cc(F)cc(N(C(=O)[C@@H]2CCC(=O)N2c2cc(C#N)ccn2)[C@H](C(=O)NC2CC(F)(F)C2)c2ccccc2Cl)c1 [Compound 150, (S)—N—((S)-1-(2-Chlorophenyl)-2-(3,3-difluorocyclobutylamino)-2-oxoethyl)-1-(4-cyanopyridin-2-yl)-N-(3-fluoro-5-(2-hydroxypropan-2-yl)phenyl)-5-oxopyrrolidine-2-carboxamide] |
| < 100 | N#Cc1ccnc(N2C(=O)OCC[C@H]2C(=O)N(c2cccc(F)c2)C(C(=O)NC2CC(F)(F)C2)c2ccccc2Cl)c1 (stereo partly drawn) [Compound 90, (4S)—N-(1-(2-Chlorophenyl)-2-(3,3-difluorocyclobutylamino)-2-oxoethyl)-3-(4-cyanopyridin-2-yl)-N-(3-fluorophenyl)-2-oxo-1,3-oxazinane-4-carboxamide] |
| < 100 | O=C(NC1CC(F)(F)C1)[C@H](c1ccccc1Cl)N(C(=O)[C@@H]1CCC(=O)N1c1ncccn1)c1cc(F)cc(F)c1 [Compound 70, (S)—N—((S)-1-(2-Chlorophenyl)-2-((3,3-difluorocyclobutyl)amino)-2-oxoethyl)-N-(3,5-difluoro-phenyl)-5-oxo-1-(pyrimidin-2-yl)pyrrolidine-2-carboxamide] |
| < 100 | CC(C)(O)c1cc(F)cc(N(C(=O)[C@@H]2CCOC(=O)N2c2cc(C#N)ccn2)[C@H](C(=O)NC2CC(F)(F)C2)c2ccccc2Cl)c1 [Compound 146, (S)—N—((S)-1-(2-Chlorophenyl)-2-(3,3-difluorocyclobutylamino)-2-oxoethyl)-3-(4-cyanopyridin-2-yl)-N-(3-fluoro-5-(2-hydroxypropan-2-yl)phenyl)-2-oxo-1,3-oxazinane-4-carboxamide] |
| < 100 | N#Cc1ccnc(N2C(=O)[C@@H](O)C[C@H]2C(=O)N(c2cc(F)cc(F)c2)[C@H](C(=O)NC2CC(F)(F)C2)c2ccccc2Cl)c1 [Compound 171, (2S,4S)—N—((S)-1-(2-Chlorophenyl)-2-((3,3-difluorocyclobutyl)amino)-2-oxoethyl)-1-(4-cyano-pyridin-2-yl)-N-(3,5-difluorophenyl)-4-hydroxy-5-oxopyrrolidine-2-carboxamide] |
| 100 to 500 | O=C(NC1CC(F)(F)C1)[C@H](c1ccccc1Cl)N(C(=O)[C@@H]1COCC(=O)N1c1ncccn1)c1cccc(F)c1 [Compound 30, (S)—N—((S)-1-(2-chlorophenyl)-2-((3,3-difluorocyclobutyl)amino)-2-oxoethyl)-N-(3-fluorophenyl)-5-oxo-4-(pyrimidin-2-yl)morpholine-3-carboxamide] |
| < 100 | N#Cc1ccnc(N2C(=O)CC[C@H]2C(=O)N(c2cc(F)cc(F)c2)[C@H](C(=O)NC2CC(F)(F)C2)c2ncccc2Cl)c1 [Compound 198, (S)—N—((S)-1-(3-Chloropyridin-2-yl)-2-(3,3-difluorocyclobutylamino)-2-oxoethyl)-1-(4-cyanopyridin-2-yl)-N-(3,5-difluorophenyl)-5-oxopyrrolidine-2-carboxamide] |
| < 100 | N#Cc1ccnc(N2C(=O)CC[C@H]2C(=O)N(c2cccc(F)c2)[C@H](C(=O)NC2CCC(F)(F)CC2)c2ccccc2Cl)c1 [Compound 53] |
| < 100 | N#Cc1ccnc(N2C(=O)CN(CCO)C[C@H]2C(=O)N(c2cc(F)cc(F)c2)[C@H](C(=O)NC2CC(F)(F)C2)c2ccccc2Cl)c1 [Compound 107, (S)—N—((S)-1-(2-chlorophenyl)-2-((3,3-difluorocyclobutyl)amino)-2-oxoethyl)-1-(4-cyanopyridin-2-yl)-N-(3,5-difluorophenyl)-4-(2-hydroxyethyl)-6-oxopiperazine-2-carboxamide] |
| < 100 | N#Cc1cc(F)cc(N(C(=O)[C@@H]2CCC(=O)N2c2nccc(C#N)n2)[C@H](C(=O)NC2CCC(F)(F)CC2)c2ccccc2Cl)c1 [Compound 185, (S)—N—((S)-1-(2-Chlorophenyl)-2-((4,4-difluorocyclohexyl)amino)-2-oxoethyl)-N-(3-cyano-5-fluorophenyl)-1-(4-cyanopyrimidin-2-yl)-5-oxopyrrolidine-2-carboxamide] |
| < 100 | N#Cc1ccnc(N2C(=O)CC[C@H]2C(=O)N(c2cccc(F)c2)[C@H](C(=O)NC2CC(F)(F)C2)c2ccccc2Cl)n1 [Compound 68, (S)—N—((S)-1-(2-Chlorophenyl)-2-((3,3-difluorocyclobutyl)amino)-2-oxoethyl)-1-(4-cyanopyrimidin-2-yl)-N-(3-fluorophenyl)-5-oxopyrrolidine-2-carboxamide] |
| < 100 | N#Cc1cccc(N(C(=O)[C@@H]2CCC(=O)N2c2cc(C#N)ccn2)[C@H](C(=O)NC2CC(F)(F)C2)c2ccccc2Cl)c1 [Compound 128, (S)—N—((S)-1-(2-Chlorophenyl)-2-((3,3-difluorocyclobutyl)amino)-2-oxoethyl)-N-(3-cyano-phenyl)-1-(4-cyanopyridin-2-yl)-5-oxopyrrolidine-2-carboxamide] |
| 100 to 500 | N#Cc1ccnc(N2C(=O)[C@H](O)C[C@H]2C(=O)N(c2cccc(F)c2)[C@@H](C(=O)NC2CCC(F)(F)CC2)c2ccccc2Cl)n1 [Compound 122, (2S,4R)—N—((R)-1-(2-Chlorophenyl)-2-((4,4-difluorocyclohexyl)amino)-2-oxoethyl)-1-(4-cyanopyrimidin-2-yl)-N-(3-fluorophenyl)-4-hydroxy-5-oxopyrrolidine-2-carboxamide] |
| < 100 | N#Cc1ccnc(N2C(=O)[C@H](O)C[C@H]2C(=O)N(c2cccc(F)c2)[C@H](C(=O)NC2CCC(F)(F)CC2)c2ccccc2Cl)n1 [Compound 123, (2S,4R)—N—((S)-1-(2-Chlorophenyl)-2-((4,4-difluorocyclohexyl)amino)-2-oxoethyl)-1-(4-cyanopyrimidin-2-yl)-N-(3-fluorophenyl)-4-hydroxy-5-oxopyrrolidine-2-carboxamide] |
| < 100 | N#Cc1ccnc(N2C(=O)CNC[C@H]2C(=O)N(c2cc(F)cc(F)c2)[C@H](C(=O)NC2CC(F)(F)C2)c2ccccc2Cl)c1 [Compound 100, (S)—N—((S)-1-(2-Chlorophenyl)-2-((3,3-difluorocyclobutyl)amino)-2-oxoethyl)-1-(4-cyanopyridin-2-yl)-N-(3,5-difluorophenyl)-6-oxopiperazine-2-carboxamide] |
| < 100 | N#Cc1ccnc(N2C(=O)CC[C@H]2C(=O)N(c2cccc3[nH]cnc23)C(C(=O)NC2CCC(F)(F)CC2)c2ccccc2Cl)c1 (stereo partly drawn) [Compound 141, (2S)—N-(1H-benzo[d]imidazol-7-yl)-N-(1-(2-chlorophenyl)-2-((4,4-difluorocyclohexyl)amino)-2-oxoethyl)-1-(4-cyanopyridin-2-yl)-5-oxopyrrolidine-2-carboxamide] |
| < 100 | N#Cc1ccnc(N2C(=O)OC[C@H]2C(=O)N(c2cccc(F)c2)[C@H](C(=O)NC2CCC(F)(F)CC2)c2ccccc2Cl)c1 [Compound 78, (S)—N—((S)-1-(2-Chlorophenyl)-2-((4,4-difluorocyclohexyl)amino)-2-oxoethyl)-3-(4-cyano-pyridin-2-yl)-N-(3-fluorophenyl)-2-oxooxazolidine-4-carboxamide] |
| < 100 | N#Cc1ccnc(N2C(=O)[C@@H](O)C[C@H]2C(=O)N(c2cccc(F)c2)[C@H](C(=O)NC2CCC(F)(F)CC2)c2ccccc2Cl)c1 [Compound 172, (2S,4S)—N—((S)-1-(2-Chlorophenyl)-2-((4,4-difluorocyclohexyl)amino)-2-oxoethyl)-1-(4-cyano-pyridin-2-yl)-N-(3-fluorophenyl)-4-hydroxy-5-oxopyrrolidine-2-carboxamide] |
